Laboratory results as given in the NIST ThermoML archive (doi:10.1016/j.tca.2018.05.016).
Numbers after ± are expanded uncertainties.

Tests used:
[1] = Crystal; DSC
[2] = Molar enthalpy of transition or fusion; conditions: Crystal; DSC

## O=[N+]([O-])[O-].c1cc[nH+]cc1 [pyridinium nitrate]
[1]
  Triple point temperature: 390 ± 5 K
[2]
  Molar enthalpy of transition or fusion: 4.13 ± 0.148 kcal/mol
